Where “and” joins values, the source holds several entries; their conditions need not be identical. Equal entries are not always repeated. Where two headings read alike, the source gives them in different places.
Tests used:
[1] = molecular target: T1, acetylcholinesterase (AChE) (Homo sapiens, UniProt P22303); assay: biochemical
T1 construct: purchased Sigma 9000-81-1 (so in the source); this is the CAS number of acetylcholinesterase, not a catalogue number
Description: (§1) A spectrophotometric analysis was conducted by Ellman et al. to determine the inhibition of ChEs (AChE and BuChE). […] An incubation of 15 min was performed at room temperature with 140 L of sodium phosphate buffer (pH 8.0), 20 L of AChE/BuChE solution, and 20 L of the test sample. AChE/BuChE solutions containing DTNB were introduced into the 10 L solution to initiate the reaction. […] A percentage of inhibition was calculated using the ratio of enzyme activity in the presence of the test sample (E), minus enzyme activity without the test sample (S), expressed as E–S/E100. Each substance’s inhibition of substrate hydrolysis by ChE was quantified using its IC50 value (g/mL) or M. Compounds with the same IC50 values are calculated using the same standardized plot.

[2] = molecular target: T2, butyrylcholinesterase (BuChE) (Homo sapiens, UniProt P06276); assay: biochemical
T2 construct: purchased Sigma 9001-08-5 (this is the CAS number of cholinesterase, not a catalogue number)
Description: as §1

[3] = substrate ATCh, DTNB, pH 8.0, 15 min incubation, read-out: AChE IC50 ± SEM
[4] = printed without unit in Figure 2 (second value of each pair), read-out: BuChE IC50
[5] = substrate BTCh, DTNB, pH 8.0, 15 min incubation, read-out: BuChE IC50 ± SEM
[6] = printed without unit in text / Figure 2, read-out: AChE IC50

T2 sequence (P06276 29-602): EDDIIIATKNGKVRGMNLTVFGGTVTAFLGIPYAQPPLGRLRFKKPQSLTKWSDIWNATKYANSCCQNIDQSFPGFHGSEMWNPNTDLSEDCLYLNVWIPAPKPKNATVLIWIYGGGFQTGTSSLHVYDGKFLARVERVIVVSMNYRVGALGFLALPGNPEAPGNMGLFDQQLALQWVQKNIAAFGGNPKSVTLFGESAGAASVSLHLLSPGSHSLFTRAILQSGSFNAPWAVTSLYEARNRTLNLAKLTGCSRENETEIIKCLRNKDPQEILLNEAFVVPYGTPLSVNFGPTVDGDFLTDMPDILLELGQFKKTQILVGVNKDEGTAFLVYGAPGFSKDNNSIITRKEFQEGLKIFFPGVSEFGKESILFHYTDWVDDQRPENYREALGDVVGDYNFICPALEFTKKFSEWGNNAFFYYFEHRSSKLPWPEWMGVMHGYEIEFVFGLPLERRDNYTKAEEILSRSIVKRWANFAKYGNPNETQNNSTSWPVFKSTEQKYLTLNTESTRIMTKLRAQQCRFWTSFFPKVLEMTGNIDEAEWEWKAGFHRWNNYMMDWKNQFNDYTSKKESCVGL
T1 sequence (P22303 32-614): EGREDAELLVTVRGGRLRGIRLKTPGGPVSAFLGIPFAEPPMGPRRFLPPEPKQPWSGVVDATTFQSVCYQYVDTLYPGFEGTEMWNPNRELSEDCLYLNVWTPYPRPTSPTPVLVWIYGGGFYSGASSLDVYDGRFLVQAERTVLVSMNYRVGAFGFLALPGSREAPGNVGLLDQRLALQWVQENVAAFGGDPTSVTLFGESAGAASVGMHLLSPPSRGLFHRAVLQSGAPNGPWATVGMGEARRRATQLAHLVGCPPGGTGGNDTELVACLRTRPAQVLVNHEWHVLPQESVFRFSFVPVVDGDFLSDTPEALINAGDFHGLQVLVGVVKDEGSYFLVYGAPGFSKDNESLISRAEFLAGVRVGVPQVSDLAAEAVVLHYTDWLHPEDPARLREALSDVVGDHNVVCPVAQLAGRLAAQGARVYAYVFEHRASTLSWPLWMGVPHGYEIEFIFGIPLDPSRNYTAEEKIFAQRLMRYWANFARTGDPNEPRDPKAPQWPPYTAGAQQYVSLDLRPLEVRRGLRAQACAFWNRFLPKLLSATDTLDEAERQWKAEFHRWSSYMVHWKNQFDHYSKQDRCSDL

Row | Structure (SMILES) | IC50 [1, 3] | IC50 [2, 4] | IC50 [2, 5] | IC50 [1, 6] | AChE IC50 ([1]; printed without unit in text / Figure 2)
1 | O=C1N/C(=N/c2nnc(-c3ccc4[nH]ncc4c3)s2)S/C1=C/c1cc(Cl)c(Cl)c([N+](=O)[O-])c1 [Compound 1, (Z)-2-((5-(1H-Indazol-5-yl)-1,3,4-Thiadiazol-2-yl)Imino)-5-((E)-3,4-Dichloro-5-Nitrobenzylidene)Thiazolidin-4-One] | 860 nM and 1100 nM | 1190 ± 420 nM | 890 nM and 1190 nM | – | –
2 | O=C1N/C(=N/c2nnc(-c3ccc4[nH]ncc4c3)s2)S/C1=C/c1ccccc1Cl [Compound 2, (Z)-2-((5-(1H-Indazol-5-yl)-1,3,4-Thiadiazol-2-yl)Imino)-5-((E)-2-Chlorobenzylidene)Thiazolidin-4-One] | 3110 ± 590 nM | – | 3360 ± 280 nM | 3110 ± 590 nM | –
3 | Cc1ccc(/C=C2/S/C(=N\c3nnc(-c4ccc5[nH]ncc5c4)s3)NC2=O)c(C)c1 [Compound 3, (Z)-2-((5-(1H-Indazol-5-yl)-1,3,4-Thiadiazol-2-yl)Imino)-5-((E)-2,4-Dimethylbenzylidene)Thiazolidin-4-One] | 8260 ± 400 nM | – | 8800 ± 130 nM | 8260 ± 400 nM | –
4 | Cc1cc(C)cc(/C=C2/S/C(=N\c3nnc(-c4ccc5[nH]ncc5c4)s3)NC2=O)c1 [Compound 4, (Z)-2-((5-(1H-Indazol-5-yl)-1,3,4-Thiadiazol-2-yl)Imino)-5-((E)-3,5-Dimethylbenzylidene)Thiazolidin-4-One] | 8600 ± 1050 nM | – | 8840 ± 980 nM | 8600 ± 1050 nM | –
5 | COc1ccc(/C=C2/S/C(=N\c3nnc(-c4ccc5[nH]ncc5c4)s3)NC2=O)cc1 [Compound 5, (Z)-2-((5-(1H-Indazol-5-yl)-1,3,4-Thiadiazol-2-yl)Imino)-5-((E)-4-Methoxybenzylidene)Thiazolidin-4-One] | 10400 ± 980 nM | – | 10600 ± 740 nM | 10400 ± 980 nM | –
6 | COc1cccc(/C=C2/S/C(=N\c3nnc(-c4ccc5[nH]ncc5c4)s3)NC2=O)c1 [Compound 6, (Z)-2-((5-(1H-Indazol-5-yl)-1,3,4-Thiadiazol-2-yl)Imino)-5-((E)-3-Methoxybenzylidene)Thiazolidin-4-One] | 12700 ± 330 nM | – | 13000 ± 150 nM | 12700 ± 330 nM | –
7 | O=C1N/C(=N/c2nnc(-c3ccc4[nH]ncc4c3)s2)S/C1=C/c1ccc([N+](=O)[O-])cc1 [Compound 7, (Z)-2-((5-(1H-Indazol-5-yl)-1,3,4-Thiadiazol-2-yl)Imino)-5-((E)-4-Nitrobenzylidene)Thiazolidin-4-One] | 1400 ± 310 nM | – | 1570 ± 280 nM | – | –
8 | O=C1N/C(=N/c2nnc(-c3ccc4[nH]ncc4c3)s2)S/C1=C/c1ccc(Cl)c(Cl)c1 [Compound 8, (Z)-2-((5-(1H-Indazol-5-yl)-1,3,4-Thiadiazol-2-yl)Imino)-5-((E)-3,4-Dichlorobenzylidene)Thiazolidin-4-one] | 1220 ± 640 nM | – | 1290 ± 410 nM | – | –
9 | O=C1N/C(=N/c2nnc(-c3ccc4[nH]ncc4c3)s2)S/C1=C/c1ccc(C(F)(F)F)cc1 [Compound 9, (Z)-2-((5-(1H-Indazol-5-yl)-1,3,4-Thiadiazol-2-yl)Imino)-5-((E)-4-(Trifluoromethyl)Benzylidene)Thiazolidin-4-One] | 860 ± 300 nM | 890 ± 120 nM | 890 ± 120 nM | 860 ± 300 nM | –
10 | O=C1N/C(=N/c2nnc(-c3ccc4[nH]ncc4c3)s2)S/C1=C/c1ccc(Br)cc1 [Compound 10, (Z)-2-((5-(1H-Indazol-5-yl)-1,3,4-Thiadiazol-2-yl)Imino)-5-((E)-4-Bromobenzylidene)Thiazolidin-4-One] | 24680 ± 120 nM | – | 25000 ± 440 nM | 24680 ± 120 nM | –
11 | O=C1N/C(=N/c2nnc(-c3ccc4[nH]ncc4c3)s2)S/C1=C/c1cccc(Br)c1 [Compound 11, (Z)-2-((5-(1H-Indazol-5-yl)-1,3,4-Thiadiazol-2-yl)Imino)-5-((E)-3-Bromobenzylidene)Thiazolidin-4-One] | 26700 ± 840 nM | – | 27080 ± 190 nM | 26700 ± 840 nM | –
12 | Cc1cc(Br)cc(/C=C2/S/C(=N\c3nnc(-c4ccc5[nH]ncc5c4)s3)NC2=O)c1 [Compound 12, (Z)-2-((5-(1H-Indazol-5-yl)-1,3,4-Thiadiazol-2-yl)Imino)-5-((E)-3-Bromo-5-Methylbenzylidene)Thiazolidin-4-One] | 25120 ± 180 nM | – | 26200 ± 670 nM | 25120 ± 180 nM | –
13 | O=C1N/C(=N/c2nnc(-c3ccc4[nH]ncc4c3)s2)S/C1=C/c1cccc2ccccc12 [Compound 13, (2Z,5E)-2-((5-(1H-Indazol-5-yl)-1,3,4-Thiadiazol-2-yl)Imino)-5-(Naphthalen-1-Ylmethylene)Thiazolidin-4-One] | – | – | – | – | no discernable activity
14 | O=C1N/C(=N/c2nnc(-c3ccc4[nH]ncc4c3)s2)S/C1=C/c1ccc(F)cc1O [Compound 14, (Z)-2-((5-(1H-Indazol-5-yl)-1,3,4-Thiadiazol-2-yl)Imino)-5-((E)-4-Fluoro-2-Hydroxybenzylidene)Thiazolidin-4-One] | 1100 nM and 920 nM | 980 ± 480 nM | 1190 nM and 980 nM | 920 ± 100 nM | –
15 | O=C1N/C(=N/c2nnc(-c3ccc4[nH]ncc4c3)s2)S/C1=C/c1ccccc1F [Compound 15, (Z)-2-((5-(1H-Indazol-5-yl)-1,3,4-Thiadiazol-2-yl)Imino)-5-((E)-2-Fluorobenzylidene)Thiazolidin-4-One] | 1240 ± 360 nM | 1270 ± 400 nM | 1270 ± 400 nM | 1240 ± 360 nM | –
16 | O=C1N/C(=N/c2nnc(-c3ccc4[nH]ncc4c3)s2)S/C1=C/c1cccc(F)c1 [Compound 16, (Z)-2-((5-(1H-Indazol-5-yl)-1,3,4-Thiadiazol-2-yl)Imino)-5-((E)-3-Fluorobenzylidene)Thiazolidin-4-One] | 1200 ± 580 nM | 1200 ± 470 nM | 1200 ± 470 nM | 1200 ± 580 nM | –
17 | O=C1N/C(=N/c2nnc(-c3ccc4[nH]ncc4c3)s2)S/C1=C/c1ccc(Br)c([N+](=O)[O-])c1 [Compound 17, (Z)-2-((5-(1H-Indazol-5-yl)-1,3,4-Thiadiazol-2-yl)Imino)-5-((E)-4-Bromo-3-Nitrobenzylidene)Thiazolidin-4-One] | 22300 ± 1000 nM | – | 20500 ± 860 nM | 22300 ± 1000 nM | –
